Laboratory results as given in US6380202B1, “Fungicidal fluoro-substituted 7-heterocyclyl-triazolopyrimidines” (BASF Aktiengesellschaft, priority 1998, dated 2002).
Values after ≈ are worked out from the molar mass of the structure shown. Values joined by “and” are separate entries in the source; they are usually repeats but may differ in a detail not shown here. Identical values can stand only once. Like-named read-outs stand apart in the source and are kept apart here.

Tests used:
Pyrenophora teres = assay type: cell-based
Botrytis cinerea = assay type: cell-based
Alternaria solani = assay type: cell-based
Leptosphaeria nodorum [1] = experiment: MIC serial dilution test, Leptosphaeria nodorum (LEPTNO); assay type: cell-based
Rhizoctonia solani = assay type: cell-based
Phytophthora infestans = assay type: cell-based; conditions: total inhibition of mycelial growth; V8 nutrient solution; 6-12 days incubation, 18-25° C.; visual inspection
Leptosphaeria nodorum [2] = experiment: Greenhouse test, Wheat Septoria nodorum (WSN); conditions: Foliar application, 2 day residual (inoculation 2 days after application)
[3] = test system: Erysiphe graminis DC. f.sp. tritici E. Marchal; conditions: in vivo
[4] = test system: Magnaporthe grisea f. sp. oryzae; assay type: cell-based; conditions: total inhibition of mycelial growth; V8 nutrient solution; 6-12 days incubation, 18-25° C.; visual inspection
Puccinia recondita = conditions: in vivo
[5] = […], V8 nutrient solution, 6-12 days incubation, 18-25° C., visual inspection
[6] = total inhibition of mycelial growth, V8 nutrient solution, 6-12 days incubation, 18-25° C., visual inspection

For Fc1cc(F)c(-c2c(Cl)nc3ncnn3c2N2CCC(F)CC2)c(F)c1 [Example 1, 5-chloro-7-(4-fluoropiperid-1-yl)-6-(2,4,6-trifluorophenyl)-1,2,4-triazolo[1,5a]pyrimidine], the “MIC (Minimum Inhibitory Concentration) PYRNTE” value (Pyrenophora teres) was 1560 µg/mL (≈ 4.04 mM), the “MIC (Minimum Inhibitory Concentration) BOTRCI” value (Botrytis cinerea; [5]) was 3130 µg/mL (≈ 8.11 mM) and the “MIC (Minimum Inhibitory Concentration) ALTESO” value (Alternaria solani; [5]) was 200 µg/mL (≈ 0.518 mM). The “MIC (Minimum Inhibitory Concentration) LEPTNO” value (Leptosphaeria nodorum [1]; [6]) was 12500 µg/mL (≈ 32.4 mM), the “MIC (Minimum Inhibitory Concentration) RHIZSO” value (Rhizoctonia solani; [5]) was 12500 µg/mL (≈ 32.4 mM) and the “MIC (Minimum Inhibitory Concentration) PHYTIN” value (Phytophthora infestans) was 50000 µg/mL (≈ 130 mM). The “Disease control (% efficacy) WSN 2 da R” value (Leptosphaeria nodorum [2]; 25 ppm) was 54%, the “Disease control (% efficacy) WSN 2 da R” value (Leptosphaeria nodorum [2]; 100 ppm) was 100% and the “Disease control (% efficacy) WPM 2 da R” value [3] was 88% and 100%. For the same compound, the “MIC (Minimum Inhibitory Concentration) PYRIOR” value [4] was 1560 µg/mL (≈ 4.04 mM).
For FCC1CCN(c2c(-c3c(F)cccc3Cl)c(Cl)nc3ncnn23)CC1 [Example 2, 5-chloro-7-(4-fluoromethylpiperid-1-yl)-6-(2-chloro-6-fluorophenyl)-1,2,4-triazolo[1,5a]pyrimidine], the “MIC (Minimum Inhibitory Concentration) PYRNTE” value (Pyrenophora teres; [5]) was 3130 µg/mL (≈ 7.86 mM), the “MIC (Minimum Inhibitory Concentration) BOTRCI” value (Botrytis cinerea; [5]) was 3130 µg/mL (≈ 7.86 mM) and the “Disease control (% efficacy) WLR 2 da R” value (Puccinia recondita) was 100%. The “MIC (Minimum Inhibitory Concentration) ALTESO” value (Alternaria solani; [5]) was 390 µg/mL (≈ 0.979 mM), the “MIC (Minimum Inhibitory Concentration) LEPTNO” value (Leptosphaeria nodorum [1]; [6]) was over 100000 µg/mL and the “MIC (Minimum Inhibitory Concentration) RHIZSO” value (Rhizoctonia solani; [5]) was over 100000 µg/mL. For the same compound, the “MIC (Minimum Inhibitory Concentration) PHYTIN” value (Phytophthora infestans) was over 100000 µg/mL, the “Disease control (% efficacy) WSN 2 da R” value (Leptosphaeria nodorum [2]; 25 ppm) was 17% and the “Disease control (% efficacy) WSN 2 da R” value (Leptosphaeria nodorum [2]; 100 ppm) was 83%. For the same compound, the “MIC (Minimum Inhibitory Concentration) PYRIOR” value [4] was 780 µg/mL (≈ 1.96 mM).
For Fc1cccc(Cl)c1-c1c(Cl)nc2ncnn2c1N1CCCC(F)C1 (stereo not drawn) [Example 3, 5-chloro-6-(2-chloro-6-fluorophenyl)-7-N-(3-fluoropiperid-1-yl)-[1,2,4]triazolo[1,5-a]pyrimidine], the “MIC (Minimum Inhibitory Concentration) PYRNTE” value (Pyrenophora teres) was 6250 µg/mL (≈ 16.3 mM), the “MIC (Minimum Inhibitory Concentration) BOTRCI” value (Botrytis cinerea; [5]) was 12500 µg/mL (≈ 32.5 mM) and the “MIC (Minimum Inhibitory Concentration) ALTESO” value (Alternaria solani) was 6250 µg/mL (≈ 16.3 mM). For the same compound, the “MIC (Minimum Inhibitory Concentration) LEPTNO” value (Leptosphaeria nodorum [1]; [6]) was 50000 µg/mL (≈ 130 mM), the “MIC (Minimum Inhibitory Concentration) RHIZSO” value (Rhizoctonia solani; [5]) was 50000 µg/mL (≈ 130 mM) and the “MIC (Minimum Inhibitory Concentration) PHYTIN” value (Phytophthora infestans) was over 100000 µg/mL. The “Disease control (% efficacy) WSN 2 da R” value (Leptosphaeria nodorum [2]; 25 ppm) was 0%, the “Disease control (% efficacy) WSN 2 da R” value (Leptosphaeria nodorum [2]; 100 ppm) was 92% and the “MIC (Minimum Inhibitory Concentration) PYRIOR” value [4] was 6250 µg/mL (≈ 16.3 mM).
In the case of Fc1c(F)c(F)c(-c2c(Cl)nc3ncnn3c2N2CCCC(F)C2)c(F)c1F (stereo not drawn) [Example 4, 5-chloro-7-N-(3-fluoropiperid-1-yl)-6-(pentafluorophenyl)-[1,2,4]triazolo[1,5-a]pyrimidine], the “MIC (Minimum Inhibitory Concentration) PYRNTE” value (Pyrenophora teres; [5]) is reported as 12500 µg/mL (≈ 29.6 mM), the “MIC (Minimum Inhibitory Concentration) BOTRCI” value (Botrytis cinerea; [5]) is reported as 12500 µg/mL (≈ 29.6 mM) and the “MIC (Minimum Inhibitory Concentration) ALTESO” value (Alternaria solani; [5]) is reported as 3130 µg/mL (≈ 7.42 mM). For the same compound, the “MIC (Minimum Inhibitory Concentration) LEPTNO” value (Leptosphaeria nodorum [1]; [6]) was 50000 µg/mL (≈ 119 mM), the “MIC (Minimum Inhibitory Concentration) RHIZSO” value (Rhizoctonia solani; [5]) was 6250 µg/mL (≈ 14.8 mM) and the “MIC (Minimum Inhibitory Concentration) PHYTIN” value (Phytophthora infestans) was 100000 µg/mL (≈ 237 mM). For the same compound, the “Disease control (% efficacy) WSN 2 da R” value (Leptosphaeria nodorum [2]; 25 ppm) was 0%, the “Disease control (% efficacy) WSN 2 da R” value (Leptosphaeria nodorum [2]; 100 ppm) was 0% and the “MIC (Minimum Inhibitory Concentration) PYRIOR” value [4] was 1560 µg/mL (≈ 3.7 mM).
For Fc1cccc(Cl)c1-c1c(Cl)nc2ncnn2c1N1CCC(F)(F)CC1 [Example 5, 5-chloro-6-(2-chloro-6-fluorophenyl)-7-N-(4,4-difluoropiperid-1-yl)-[1,2,4]triazolo[1,5-a]pyrimidine], the “MIC (Minimum Inhibitory Concentration) PYRNTE” value (Pyrenophora teres; [5]) was 3130 µg/mL (≈ 7.78 mM), the “MIC (Minimum Inhibitory Concentration) BOTRCI” value (Botrytis cinerea; [5]) was 50000 µg/mL (≈ 124 mM) and the “Disease control (% efficacy) WLR 2 da C” value (Puccinia recondita) was 10% and 0%. The “MIC (Minimum Inhibitory Concentration) ALTESO” value (Alternaria solani; [5]) was under 50 µg/mL, the “MIC (Minimum Inhibitory Concentration) LEPTNO” value (Leptosphaeria nodorum [1]; [6]) was 12500 µg/mL (≈ 31.1 mM) and the “MIC (Minimum Inhibitory Concentration) RHIZSO” value (Rhizoctonia solani; [5]) was over 100000 µg/mL. For the same compound, the “MIC (Minimum Inhibitory Concentration) PHYTIN” value (Phytophthora infestans) was over 100000 µg/mL, the “Disease control (% efficacy) WSN 2 da R” value (Leptosphaeria nodorum [2]; 25 ppm) was 36% and the “Disease control (% efficacy) WSN 2 da R” value (Leptosphaeria nodorum [2]; 100 ppm) was 98%. The “Disease control (% efficacy) WPM 2 da R” value [3] was 74% and 94% and 84% and the “MIC (Minimum Inhibitory Concentration) PYRIOR” value [4] was 200 µg/mL (≈ 0.497 mM).
In the case of FCC1CCN(c2c(-c3c(F)cc(F)cc3F)c(Cl)nc3ncnn23)CC1 [Example 6, 5-chloro-7-N-(4-fluoromethylpiperid-1-yl)-6-(2,4,6-trifluorophenyl)-[1,2,4]triazolo[1,5-a]pyrimidine], the “MIC (Minimum Inhibitory Concentration) PYRNTE” value (Pyrenophora teres) is reported as 3130 µg/mL (≈ 7.83 mM), the “MIC (Minimum Inhibitory Concentration) BOTRCI” value (Botrytis cinerea) is reported as 3130 µg/mL (≈ 7.83 mM) and the “Disease control (% efficacy) WLR 2 da C” value (Puccinia recondita) is reported as 100% and 98%. For the same compound, the “Disease control (% efficacy) WLR 2 da R” value (Puccinia recondita) was 100%, the “MIC (Minimum Inhibitory Concentration) ALTESO” value (Alternaria solani) was 390 µg/mL (≈ 0.976 mM) and the “MIC (Minimum Inhibitory Concentration) LEPTNO” value (Leptosphaeria nodorum [1]) was over 100000 µg/mL. For the same compound, the “MIC (Minimum Inhibitory Concentration) RHIZSO” value (Rhizoctonia solani) was over 100000 µg/mL, the “MIC (Minimum Inhibitory Concentration) PHYTIN” value (Phytophthora infestans) was over 100000 µg/mL and the “Disease control (% efficacy) WSN 2 da R” value (Leptosphaeria nodorum [2]; 25 ppm) was 63%. For the same compound, the “Disease control (% efficacy) WSN 2 da R” value (Leptosphaeria nodorum [2]; 100 ppm) was 99% and the “MIC (Minimum Inhibitory Concentration) PYRIOR” value [4] was 780 µg/mL (≈ 1.95 mM).
